Data as given in PubChem BioAssay (NCI).
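Exposure lasted 48 hours, with cells grown in 96-well plates and compounds tested at five concentrations. At the TGI there is no net growth.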

Key:
Assay in all cases: DTP human tumour cell line panel, 48 h
[1] = system: MDA-MB-231 breast
[2] = system: COLO 205 colon
[3] = system: CCRF-CEM leukemia
[4] = system: 786-0 renal
[5] = system: K-562 leukemia
[6] = system: RXF 393 renal
[7] = system: SNB-19 CNS
[8] = system: UO-31 renal
[9] = system: SK-MEL-5 melanoma
[10] = system: BT-549 breast
[11] = system: TK-10 renal
[12] = system: HT29 colon
[13] = system: PC-3 prostate
[14] = system: NCI/ADR-RES ovarian
[15] = system: MDA-MB-435
[16] = system: SW-620 colon
[17] = system: UACC-257 melanoma
[18] = system: SK-MEL-28 melanoma
[19] = system: MOLT-4 leukemia
[20] = system: CAKI-1 renal
[21] = system: IGROV1 ovarian
[22] = system: EKVX NSCLC
[23] = system: HOP-92 NSCLC
[24] = system: NCI-H522 lung
[25] = system: SNB-75 CNS
[26] = system: U251 CNS
[27] = system: A498 renal
[28] = system: OVCAR-4 ovarian
[29] = system: MALME-3M melanoma
[30] = system: LOX IMVI melanoma
[31] = system: NCI-H460 lung
[32] = system: UACC-62 melanoma
[33] = system: MCF7 breast
[34] = system: T-47D breast
[35] = system: NCI-H226 lung
[36] = system: NCI-H23 lung
[37] = system: OVCAR-8 ovarian
[38] = system: RPMI-8226 leukemia
[39] = system: OVCAR-3 ovarian
[40] = system: HCC-2998 colon
[41] = system: SK-OV-3 ovarian
[42] = system: HCT-15 colon
[43] = system: HOP-62 NSCLC
[44] = system: SF-268 CNS
[45] = system: ACHN renal
[46] = system: SK-MEL-2 melanoma
[47] = system: HS 578T breast
[48] = system: MDA-N
[49] = system: SF-295 CNS
[50] = system: SN12C renal
[51] = system: KM12 colon
[52] = system: M14 melanoma
[53] = system: A549 NSCLC
[54] = system: HCT-116 colon
[55] = system: SF-539 CNS
[56] = system: OVCAR-5 ovarian
[57] = system: DU-145 prostate
[58] = system: HL-60(TB) leukemia
[59] = system: SR leukemia

Compound: Cc1cn(CCCCCCC2=NCCCN2)c(=O)[nH]c1=O
- TGI [1]: > 100 µM
- TGI [2]: > 100 µM
- TGI [3]: > 100 µM
- TGI [4]: > 100 µM
- TGI [5]: > 100 µM
- TGI [6]: > 100 µM
- TGI [7]: > 100 µM
- TGI [8]: > 100 µM
- TGI [9]: > 100 µM
- TGI [10]: > 100 µM
- TGI [11]: > 100 µM
- TGI [12]: > 100 µM
- TGI [13]: > 100 µM
- TGI [14]: > 100 µM
- TGI [15]: > 100 µM
- TGI [16]: > 100 µM
- TGI [17]: > 100 µM
- TGI [18]: > 100 µM
- TGI [19]: > 100 µM
- TGI [20]: > 100 µM
- TGI [21]: > 100 µM
- TGI [22]: > 100 µM
- TGI [23]: > 100 µM
- TGI [24]: > 100 µM
- TGI [25]: > 100 µM
- TGI [26]: > 100 µM
- TGI [27]: > 100 µM
- TGI [28]: > 100 µM
- TGI [29]: > 100 µM
- TGI [30]: > 100 µM
- TGI [31]: > 100 µM
- TGI [32]: > 100 µM
- TGI [33]: > 100 µM
- TGI [34]: > 100 µM
- TGI [35]: > 100 µM
- TGI [36]: > 100 µM
- TGI [37]: > 100 µM
- TGI [38]: > 100 µM
- TGI [39]: > 100 µM
- TGI [40]: > 100 µM
- TGI [41]: > 100 µM
- TGI [42]: > 100 µM
- TGI [43]: > 100 µM
- TGI [44]: > 100 µM
- TGI [45]: > 100 µM
- TGI [46]: > 100 µM
- TGI [47]: > 100 µM
- TGI [48]: > 100 µM
- TGI [49]: > 100 µM
- TGI [50]: > 100 µM
- TGI [51]: > 100 µM
- TGI [52]: > 100 µM
- TGI [53]: > 100 µM
- TGI [54]: > 100 µM
- TGI [55]: > 100 µM
- TGI [56]: > 100 µM
- TGI [57]: > 100 µM

Compound: CC(=O)OCc1cncn1S(=O)(=O)c1ccc(C)cc1
- TGI [1]: > 100 µM
- TGI [2]: > 100 µM
- TGI [3]: > 100 µM
- TGI [4]: > 100 µM
- TGI [5]: > 100 µM
- TGI [6]: > 100 µM
- TGI [7]: > 100 µM
- TGI [8]: > 100 µM
- TGI [9]: > 100 µM
- TGI [10]: > 100 µM
- TGI [11]: > 100 µM
- TGI [12]: > 100 µM
- TGI [13]: > 100 µM
- TGI [14]: > 100 µM
- TGI [15]: > 78.9 µM
- TGI [16]: > 100 µM
- TGI [17]: > 100 µM
- TGI [18]: > 100 µM
- TGI [19]: > 100 µM
- TGI [58]: 50.2 µM
- TGI [20]: > 100 µM
- TGI [21]: > 100 µM
- TGI [22]: > 100 µM
- TGI [23]: > 100 µM
- TGI [24]: > 100 µM
- TGI [25]: > 100 µM
- TGI [26]: > 100 µM
- TGI [59]: > 100 µM
- TGI [28]: > 100 µM
- TGI [29]: > 100 µM
- TGI [30]: > 100 µM
- TGI [31]: > 65.5 µM
- TGI [32]: > 100 µM
- TGI [33]: > 100 µM
- TGI [34]: > 100 µM
- TGI [35]: > 100 µM
- TGI [36]: > 100 µM
- TGI [37]: > 100 µM
- TGI [38]: > 100 µM
- TGI [39]: > 100 µM
- TGI [40]: > 100 µM
- TGI [41]: > 100 µM
- TGI [42]: > 100 µM
- TGI [43]: > 100 µM
- TGI [44]: > 100 µM
- TGI [45]: > 100 µM
- TGI [46]: > 100 µM
- TGI [47]: > 100 µM
- TGI [48]: 45.6 µM
- TGI [49]: > 100 µM
- TGI [50]: > 100 µM
- TGI [51]: > 100 µM
- TGI [52]: > 100 µM
- TGI [53]: > 100 µM
- TGI [54]: > 100 µM
- TGI [55]: > 100 µM
- TGI [56]: > 100 µM
- TGI [57]: > 100 µM

Compound: Cc1cn(C2CC(N)C(C(=O)NCC(=O)O)O2)c(=O)[nH]c1=O (configuration not stated)
- TGI [1]: > 100 µM
- TGI [2]: > 100 µM
- TGI [3]: > 100 µM
- TGI [5]: > 100 µM
- TGI [6]: > 100 µM
- TGI [7]: > 100 µM
- TGI [8]: > 100 µM
- TGI [9]: > 100 µM
- TGI [10]: > 100 µM
- TGI [11]: > 100 µM
- TGI [12]: > 100 µM
- TGI [13]: > 100 µM
- TGI [14]: > 100 µM
- TGI [15]: > 100 µM
- TGI [16]: > 100 µM
- TGI [18]: > 100 µM
- TGI [19]: > 100 µM
- TGI [58]: > 100 µM
- TGI [20]: > 100 µM
- TGI [21]: > 100 µM
- TGI [22]: > 100 µM
- TGI [23]: > 100 µM
- TGI [24]: > 100 µM
- TGI [25]: > 100 µM
- TGI [26]: > 100 µM
- TGI [27]: > 100 µM
- TGI [59]: > 100 µM
- TGI [28]: > 100 µM
- TGI [29]: > 100 µM
- TGI [30]: > 100 µM
- TGI [31]: > 100 µM
- TGI [32]: > 100 µM
- TGI [33]: > 100 µM
- TGI [34]: > 100 µM
- TGI [35]: > 100 µM
- TGI [36]: > 100 µM
- TGI [38]: > 100 µM
- TGI [39]: > 100 µM
- TGI [40]: > 100 µM
- TGI [41]: > 100 µM
- TGI [42]: > 100 µM
- TGI [43]: > 100 µM
- TGI [44]: > 100 µM
- TGI [45]: > 100 µM
- TGI [47]: > 100 µM
- TGI [48]: > 100 µM
- TGI [50]: > 100 µM
- TGI [51]: > 100 µM
- TGI [52]: > 100 µM
- TGI [54]: > 100 µM
- TGI [56]: > 100 µM
- TGI [57]: > 100 µM
